Measurements: ChEMBL document CHEMBL5154816, “Structure-Based Discovery and Optimization of Furo[3,2-c]pyridin-4(5H)-one Derivatives as Potent and Second Bromodomain (BD2)-Selective Bromo and Extra Terminal Domain (BET) Inhibitors” (J Med Chem, 2022)

What was measured:
[1] = target: SWI/SNF-related matrix-associated actin-dependent regulator of chromatin subfamily A member 4 (Homo sapiens) (UniProt P51532); assay: Binding affinity to SMARCA4 (unknown origin) assessed as change in melting temperature at 100 uM incubated for 30 mins by thermal shift assay
SWI/SNF-related matrix-associated actin-dependent regulator of chromatin subfamily A member 4 (Homo sapiens), sequence (P51532 whole entry, the tested form may be a part): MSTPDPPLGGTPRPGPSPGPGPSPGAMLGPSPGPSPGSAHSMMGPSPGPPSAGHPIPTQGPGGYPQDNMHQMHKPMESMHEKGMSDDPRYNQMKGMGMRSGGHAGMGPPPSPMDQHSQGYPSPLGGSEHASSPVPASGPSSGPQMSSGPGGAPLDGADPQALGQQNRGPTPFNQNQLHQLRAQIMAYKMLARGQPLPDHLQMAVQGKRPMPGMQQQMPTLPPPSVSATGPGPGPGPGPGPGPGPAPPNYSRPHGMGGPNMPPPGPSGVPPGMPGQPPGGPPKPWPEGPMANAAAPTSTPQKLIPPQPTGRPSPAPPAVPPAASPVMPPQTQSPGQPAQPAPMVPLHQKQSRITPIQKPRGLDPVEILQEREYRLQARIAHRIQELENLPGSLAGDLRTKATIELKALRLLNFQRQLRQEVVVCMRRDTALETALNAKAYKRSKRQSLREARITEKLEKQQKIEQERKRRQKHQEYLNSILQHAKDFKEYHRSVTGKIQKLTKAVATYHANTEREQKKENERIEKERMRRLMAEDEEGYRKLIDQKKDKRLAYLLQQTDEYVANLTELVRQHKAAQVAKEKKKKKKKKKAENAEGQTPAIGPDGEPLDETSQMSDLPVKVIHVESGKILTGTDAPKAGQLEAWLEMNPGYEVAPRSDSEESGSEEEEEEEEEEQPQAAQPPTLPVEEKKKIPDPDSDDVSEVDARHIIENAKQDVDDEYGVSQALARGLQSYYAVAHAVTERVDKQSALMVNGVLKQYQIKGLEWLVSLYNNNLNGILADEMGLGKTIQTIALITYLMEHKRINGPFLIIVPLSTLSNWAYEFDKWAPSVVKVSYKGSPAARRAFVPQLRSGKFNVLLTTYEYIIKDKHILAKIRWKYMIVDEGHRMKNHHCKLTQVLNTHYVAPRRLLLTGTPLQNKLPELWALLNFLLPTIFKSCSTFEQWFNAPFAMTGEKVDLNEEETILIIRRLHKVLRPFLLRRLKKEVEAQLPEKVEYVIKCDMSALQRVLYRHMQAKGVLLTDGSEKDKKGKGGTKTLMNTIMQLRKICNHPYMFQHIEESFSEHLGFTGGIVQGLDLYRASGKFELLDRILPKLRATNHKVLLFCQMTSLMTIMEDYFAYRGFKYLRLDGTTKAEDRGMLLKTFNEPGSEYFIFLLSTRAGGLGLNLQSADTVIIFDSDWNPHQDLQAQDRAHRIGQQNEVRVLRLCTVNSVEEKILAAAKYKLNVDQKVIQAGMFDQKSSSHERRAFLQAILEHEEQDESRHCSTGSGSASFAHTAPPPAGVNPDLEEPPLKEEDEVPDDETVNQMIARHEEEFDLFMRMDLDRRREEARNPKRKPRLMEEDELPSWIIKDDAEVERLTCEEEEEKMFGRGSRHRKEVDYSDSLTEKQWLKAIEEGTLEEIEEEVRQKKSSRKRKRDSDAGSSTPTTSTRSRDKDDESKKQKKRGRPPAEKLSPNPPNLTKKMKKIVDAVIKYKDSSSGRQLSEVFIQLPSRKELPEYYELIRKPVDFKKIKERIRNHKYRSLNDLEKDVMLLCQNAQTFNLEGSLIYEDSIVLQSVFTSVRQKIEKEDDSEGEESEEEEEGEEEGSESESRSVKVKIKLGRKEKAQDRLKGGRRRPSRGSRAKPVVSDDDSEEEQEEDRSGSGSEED

[2] = target: T1, Bromodomain-containing protein 9 (Homo sapiens) (UniProt Q9H8M2); assay: Binding affinity to His6-fused BRD9 (unknown origin) assessed as change in melting temperature at 100 uM incubated for 30 mins by thermal shift assay
T1 sequence (whole entry): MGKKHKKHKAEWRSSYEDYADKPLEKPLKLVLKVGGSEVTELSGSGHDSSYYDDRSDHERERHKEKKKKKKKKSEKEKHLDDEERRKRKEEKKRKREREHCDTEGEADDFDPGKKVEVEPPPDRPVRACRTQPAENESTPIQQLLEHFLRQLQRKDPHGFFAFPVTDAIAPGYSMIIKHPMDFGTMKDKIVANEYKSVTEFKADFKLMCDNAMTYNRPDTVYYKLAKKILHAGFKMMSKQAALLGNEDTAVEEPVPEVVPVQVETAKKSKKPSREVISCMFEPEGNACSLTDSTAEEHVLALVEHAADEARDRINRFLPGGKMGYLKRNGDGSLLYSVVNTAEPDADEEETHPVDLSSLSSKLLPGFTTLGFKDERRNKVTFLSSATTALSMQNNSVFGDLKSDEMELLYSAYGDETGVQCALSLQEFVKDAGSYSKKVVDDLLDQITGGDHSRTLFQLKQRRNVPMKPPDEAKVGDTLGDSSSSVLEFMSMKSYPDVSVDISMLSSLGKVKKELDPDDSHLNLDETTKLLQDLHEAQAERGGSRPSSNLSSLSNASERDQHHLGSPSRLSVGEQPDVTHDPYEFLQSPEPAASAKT

[3] = target: T2, Peregrin (Homo sapiens) (UniProt P55201); assay: Binding affinity to BRPF1 (unknown origin) assessed as change in melting temperature at 100 uM incubated for 30 mins by thermal shift assay
T2 sequence (whole entry): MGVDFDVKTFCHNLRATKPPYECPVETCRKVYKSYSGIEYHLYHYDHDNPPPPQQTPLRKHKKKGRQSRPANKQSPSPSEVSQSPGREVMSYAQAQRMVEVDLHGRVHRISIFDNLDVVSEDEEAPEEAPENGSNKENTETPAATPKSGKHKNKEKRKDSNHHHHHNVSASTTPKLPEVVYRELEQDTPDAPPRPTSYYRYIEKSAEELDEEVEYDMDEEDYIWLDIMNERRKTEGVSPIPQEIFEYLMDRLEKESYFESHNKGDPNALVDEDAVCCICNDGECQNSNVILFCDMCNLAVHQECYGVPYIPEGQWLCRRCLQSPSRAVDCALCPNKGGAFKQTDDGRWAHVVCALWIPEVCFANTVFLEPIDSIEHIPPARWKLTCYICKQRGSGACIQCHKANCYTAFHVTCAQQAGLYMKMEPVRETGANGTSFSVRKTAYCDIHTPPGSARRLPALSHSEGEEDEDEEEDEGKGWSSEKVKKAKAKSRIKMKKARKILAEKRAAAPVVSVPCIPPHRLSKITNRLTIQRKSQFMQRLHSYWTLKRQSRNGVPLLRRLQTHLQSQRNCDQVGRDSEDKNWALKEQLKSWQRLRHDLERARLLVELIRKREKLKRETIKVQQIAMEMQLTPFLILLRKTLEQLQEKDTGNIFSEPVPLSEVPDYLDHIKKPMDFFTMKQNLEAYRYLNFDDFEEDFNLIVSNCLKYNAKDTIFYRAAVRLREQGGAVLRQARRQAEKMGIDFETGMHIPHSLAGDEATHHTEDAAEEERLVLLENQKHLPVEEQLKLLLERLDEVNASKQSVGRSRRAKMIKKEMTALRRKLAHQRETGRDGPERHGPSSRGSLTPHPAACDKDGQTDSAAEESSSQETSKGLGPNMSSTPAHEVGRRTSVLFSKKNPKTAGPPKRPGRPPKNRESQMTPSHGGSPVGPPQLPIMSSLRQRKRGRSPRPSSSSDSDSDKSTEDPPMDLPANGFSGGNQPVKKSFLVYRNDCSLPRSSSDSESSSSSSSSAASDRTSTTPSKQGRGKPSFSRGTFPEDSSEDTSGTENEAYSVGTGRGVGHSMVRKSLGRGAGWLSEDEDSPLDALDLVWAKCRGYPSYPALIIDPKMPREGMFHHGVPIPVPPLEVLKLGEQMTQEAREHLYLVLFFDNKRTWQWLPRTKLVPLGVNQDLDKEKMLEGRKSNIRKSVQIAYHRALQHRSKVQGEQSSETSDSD

[4] = target: CREB-binding protein (Homo sapiens) (UniProt Q92793); assay: Binding affinity to CBP (unknown origin) assessed as change in melting temperature at 100 uM incubated for 30 mins by thermal shift assay
[5] = target: Bromodomain testis-specific protein (Homo sapiens, UniProt Q58F21); assay: Binding affinity to His6-fused BRDT BD1 (unknown origin) assessed as change in melting temperature at 100 uM incubated for 30 mins by thermal shift assay
[6] = target: Transcription initiation factor TFIID subunit 1 (Homo sapiens) (UniProt P21675); assay: Binding affinity to TAF1 BD1(unknown origin) assessed as change in melting temperature at 100 uM incubated for 30 mins by thermal shift assay
[7] = target: SWI/SNF-related matrix-associated actin-dependent regulator of chromatin subfamily A member 2 (Homo sapiens) (UniProt P51531); assay: Binding affinity to SMARCA2B (unknown origin) assessed as change in melting temperature at 100 uM incubated for 30 mins by thermal shift assay
SWI/SNF-related matrix-associated actin-dependent regulator of chromatin subfamily A member 2 (Homo sapiens), sequence (P51531 whole entry): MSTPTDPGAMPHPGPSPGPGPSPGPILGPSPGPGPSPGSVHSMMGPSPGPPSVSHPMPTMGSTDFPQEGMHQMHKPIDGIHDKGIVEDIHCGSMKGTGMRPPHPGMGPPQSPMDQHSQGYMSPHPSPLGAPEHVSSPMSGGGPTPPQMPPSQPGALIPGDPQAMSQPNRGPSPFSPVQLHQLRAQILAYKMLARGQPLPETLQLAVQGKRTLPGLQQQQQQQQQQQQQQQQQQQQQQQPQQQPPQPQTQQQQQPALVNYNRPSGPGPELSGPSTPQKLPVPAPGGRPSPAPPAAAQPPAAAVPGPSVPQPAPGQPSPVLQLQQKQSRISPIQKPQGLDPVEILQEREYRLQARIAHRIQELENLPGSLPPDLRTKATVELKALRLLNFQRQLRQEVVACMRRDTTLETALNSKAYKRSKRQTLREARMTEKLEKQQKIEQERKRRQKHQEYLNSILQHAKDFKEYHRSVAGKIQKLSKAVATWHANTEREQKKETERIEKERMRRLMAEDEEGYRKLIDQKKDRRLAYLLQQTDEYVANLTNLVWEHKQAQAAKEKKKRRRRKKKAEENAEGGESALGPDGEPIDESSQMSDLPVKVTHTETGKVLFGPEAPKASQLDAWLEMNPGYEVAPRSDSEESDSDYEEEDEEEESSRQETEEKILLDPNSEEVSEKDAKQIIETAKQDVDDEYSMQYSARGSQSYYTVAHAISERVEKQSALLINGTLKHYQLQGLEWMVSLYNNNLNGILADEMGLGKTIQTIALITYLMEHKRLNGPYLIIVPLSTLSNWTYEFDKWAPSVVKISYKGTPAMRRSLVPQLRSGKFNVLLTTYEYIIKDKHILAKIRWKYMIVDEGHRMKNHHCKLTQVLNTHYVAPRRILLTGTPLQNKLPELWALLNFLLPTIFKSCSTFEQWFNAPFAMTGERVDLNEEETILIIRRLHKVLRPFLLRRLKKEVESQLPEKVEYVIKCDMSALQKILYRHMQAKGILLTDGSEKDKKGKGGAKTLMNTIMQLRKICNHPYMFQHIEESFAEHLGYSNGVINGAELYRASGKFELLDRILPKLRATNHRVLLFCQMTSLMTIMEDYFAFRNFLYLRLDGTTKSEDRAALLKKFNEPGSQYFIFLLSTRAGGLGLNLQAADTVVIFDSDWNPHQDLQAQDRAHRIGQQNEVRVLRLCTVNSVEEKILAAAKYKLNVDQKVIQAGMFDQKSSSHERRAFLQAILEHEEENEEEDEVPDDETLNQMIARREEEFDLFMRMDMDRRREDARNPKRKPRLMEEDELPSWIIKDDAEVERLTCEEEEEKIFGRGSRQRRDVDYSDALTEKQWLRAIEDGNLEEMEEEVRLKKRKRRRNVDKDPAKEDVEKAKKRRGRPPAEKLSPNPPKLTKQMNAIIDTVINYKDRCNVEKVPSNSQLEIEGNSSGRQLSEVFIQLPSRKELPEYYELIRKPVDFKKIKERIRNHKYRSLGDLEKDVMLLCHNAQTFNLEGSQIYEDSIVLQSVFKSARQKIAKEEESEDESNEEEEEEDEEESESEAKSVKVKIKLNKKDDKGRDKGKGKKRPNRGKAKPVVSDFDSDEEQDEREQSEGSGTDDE

[8] = target: PH-interacting protein (Homo sapiens) (UniProt Q8WWQ0); assay: Binding affinity to PHIP-2 (unknown origin) assessed as change in melting temperature at 100 uM incubated for 30 mins by thermal shift assay
[9] = target: Bromodomain-containing protein 2 (Homo sapiens, UniProt P25440); assay: Binding affinity to His6-fused BRD2 BD1 (unknown origin) assessed as change in melting temperature at 100 uM incubated for 30 mins by thermal shift assay
Bromodomain-containing protein 2, sequence (P25440 whole entry, looked up, the tested form may be a part): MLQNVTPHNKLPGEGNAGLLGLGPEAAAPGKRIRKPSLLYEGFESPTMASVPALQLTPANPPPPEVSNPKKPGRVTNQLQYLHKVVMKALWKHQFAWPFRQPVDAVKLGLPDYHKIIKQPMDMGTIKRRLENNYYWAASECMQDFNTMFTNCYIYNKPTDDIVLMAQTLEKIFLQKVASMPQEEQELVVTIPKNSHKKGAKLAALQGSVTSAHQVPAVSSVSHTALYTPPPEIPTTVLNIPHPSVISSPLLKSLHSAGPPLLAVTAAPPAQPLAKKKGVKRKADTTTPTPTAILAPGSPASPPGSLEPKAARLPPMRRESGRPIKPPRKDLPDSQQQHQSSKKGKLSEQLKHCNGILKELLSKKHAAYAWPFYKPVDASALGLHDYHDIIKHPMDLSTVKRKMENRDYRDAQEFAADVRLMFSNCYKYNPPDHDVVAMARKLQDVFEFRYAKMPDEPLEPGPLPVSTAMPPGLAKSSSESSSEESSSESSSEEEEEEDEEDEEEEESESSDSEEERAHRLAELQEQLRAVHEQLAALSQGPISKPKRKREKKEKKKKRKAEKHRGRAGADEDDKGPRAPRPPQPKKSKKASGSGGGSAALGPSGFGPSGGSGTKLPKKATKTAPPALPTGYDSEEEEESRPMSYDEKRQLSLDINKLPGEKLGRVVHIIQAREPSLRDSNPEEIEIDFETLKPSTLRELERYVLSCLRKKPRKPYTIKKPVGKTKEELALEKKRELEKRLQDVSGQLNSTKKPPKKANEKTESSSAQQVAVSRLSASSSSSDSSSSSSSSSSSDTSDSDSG

[10] = target: Histone acetyltransferase KAT2B (Homo sapiens) (UniProt Q92831); assay: Binding affinity to PCAF (unknown origin) assessed as change in melting temperature at 100 uM incubated for 30 mins by thermal shift assay
Histone acetyltransferase KAT2B (Homo sapiens), sequence (Q92831 whole entry, looked up): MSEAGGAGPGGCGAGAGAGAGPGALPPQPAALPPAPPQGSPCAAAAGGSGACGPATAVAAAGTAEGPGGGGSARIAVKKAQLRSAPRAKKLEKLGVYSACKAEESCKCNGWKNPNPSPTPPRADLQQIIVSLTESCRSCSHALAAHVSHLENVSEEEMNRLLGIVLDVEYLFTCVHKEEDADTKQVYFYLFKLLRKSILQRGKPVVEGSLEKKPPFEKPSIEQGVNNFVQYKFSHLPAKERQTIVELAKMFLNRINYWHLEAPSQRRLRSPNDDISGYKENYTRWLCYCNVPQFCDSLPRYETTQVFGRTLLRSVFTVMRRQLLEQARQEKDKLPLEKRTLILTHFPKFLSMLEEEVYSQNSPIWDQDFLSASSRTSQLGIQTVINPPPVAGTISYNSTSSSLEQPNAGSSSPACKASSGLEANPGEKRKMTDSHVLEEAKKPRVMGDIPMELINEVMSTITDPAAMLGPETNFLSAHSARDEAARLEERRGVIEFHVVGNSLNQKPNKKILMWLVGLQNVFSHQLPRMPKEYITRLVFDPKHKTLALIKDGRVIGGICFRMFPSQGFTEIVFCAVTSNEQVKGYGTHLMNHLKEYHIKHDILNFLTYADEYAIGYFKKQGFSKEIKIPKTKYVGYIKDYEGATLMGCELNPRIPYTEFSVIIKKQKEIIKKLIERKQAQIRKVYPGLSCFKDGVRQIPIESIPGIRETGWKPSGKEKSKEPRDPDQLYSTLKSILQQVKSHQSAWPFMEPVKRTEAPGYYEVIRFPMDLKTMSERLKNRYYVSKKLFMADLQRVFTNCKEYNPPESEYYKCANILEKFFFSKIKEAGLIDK

[11] = target: Chromatin remodeling regulator CECR2 (Homo sapiens) (UniProt Q9BXF3); assay: Binding affinity to CECR2 (unknown origin) assessed as change in melting temperature at 100 uM incubated for 30 mins by thermal shift assay
[12] = target: Bromodomain-containing protein 4 (Homo sapiens, UniProt O60885); conditions: dose 100.0 µM, time 30.0 min
[13] = target: Bromodomain-containing protein 3 (Homo sapiens, UniProt Q15059); assay: Binding affinity to His6-fused BRD3 BD1 (unknown origin) assessed as change in melting temperature at 100 uM incubated for 30 mins by thermal shift assay
[14] = target: Transcription initiation factor TFIID subunit 1 (Homo sapiens) (UniProt P21675); assay: Binding affinity to TAF1 BD2 (unknown origin) assessed as change in melting temperature at 100 uM incubated for 30 mins by thermal shift assay

| ΔTm [1] [°C] | ΔTm [2] [°C] | ΔTm [3] [°C] | ΔTm [4] [°C] | ΔTm [5] [°C] | ΔTm [6] [°C] | ΔTm [7] [°C] | ΔTm [8] [°C] | ΔTm [9] [°C] | ΔTm [10] [°C] | ΔTm [11] [°C] | ΔTm [12] [°C] | ΔTm [13] [°C] | ΔTm [14] [°C] | Compound |
| --- | --- | --- | --- | --- | --- | --- | --- | --- | --- | --- | --- | --- | --- | --- |
| 0 | -0.75 | -1.5 | 0.75 | 2 | -1 | 1 | -2 | 2 | 0 | 0 | – | – | – | Cc1cc(F)cc(C)c1Oc1ccc(C(C)(C)O)cc1-c1cn(C)c(=O)c2cc(-c3cnc(C4CCCC4)[nH]3)oc12 |
| -0.5 | -0.5 | -1.5 | 0.5 | 3 | -1 | 0.75 | -2 | 3 | -1 | -0.25 | 16 | 4 | -1 | Cc1cc(F)cc(C)c1Oc1ccc(C(C)(C)O)cc1-c1cn(C)c(=O)c2cc(-c3cnc(C4CCC4)[nH]3)oc12 |
| 0 | -1.25 | -1.25 | 0.5 | 2 | -1.25 | 1 | -2 | 1 | 0.25 | -0.25 | 14 | 1.25 | -1 | Cc1cc(F)cc(C)c1Oc1ccc(C(C)(C)O)cc1-c1cn(C)c(=O)c2cc(-c3cnc(C4CCCCC4)[nH]3)oc12 |
| 0.25 | -2 | -2 | 1 | 2.75 | -1.25 | -0.25 | -2 | 3.5 | -0.5 | 0 | 16.2 | 4.5 | -1.25 | Cc1cc(F)cc(C)c1Oc1ccc(C(C)(C)O)cc1-c1cn(C)c(=O)c2cc(-c3cnc(C4CC4)[nH]3)oc12 |
